# Measurements taken from patent publication US12012467B2, “Small molecule DCN1 inhibitors and therapeutic methods using the same” (THE REGENTS OF THE UNIVERSITY OF MICHIGAN, priority 2017, dated 2024).
# pKd: −log10 of the molar value. “Also recorded” adds a separate entry of the source. Counter-ions that a name gives are not always drawn.
# What was measured:
# [1] = system: mRNA of NRF2, NQ01 and HO-1; test: qRT-PCR of NRF2 and NRF2-regulated genes in THLE2 liver cell line; assay type: cell-based; details: 10 μM, different time points
# Description: FIG. 4 provides qRT-PCR analysis of mRNA levels of NRF2 and NRF2-regulated genes in the THLE2 liver cell line. […] The relative mRNA levels of NRF2, NQ01 and HO-1 were examined by quantitative real-time RT-PCR assay.
# [2] = system: neddylation of cullin 3; test: Western blotting of neddylated and un-neddylated cullin 3 in THLE2 liver cell line; assay type: cell-based
# Protocol: (§1) A key function of cullin neddylation is to control E3 ubiquitin ligase activity of the cullin complex, which in turn regulates protein turnover in cells. DI-591 (Example 58) was evaluated for its effect on neddylation of 5 different cullins in the THLE2 liver cell line with the data shown in FIG. 1. Immortalized THLE2 liver cell line was treated by a dose-range of DCN1 inhibitor DI-591 or a dose-range of MLN4924 for 24 h. The protein levels of neddylated- and un-neddylated-cullin family proteins and several well-known substrates of cullins were examined by western blotting analysis. GAPDH was used as a loading control. […] Immunohistochemical data confirmed the increased NRF2 protein by Example 58 in liver cells.
# (§2) DI-591 (Example 58) was further compared to MLN4924 for their ability to inhibit neddylation of cullin 1 and cullin 3 in the THLE2 liver cell line with the data shown in FIG. 2. THLE2 liver cell line was treated by DI-591 at 10 μM or MLN4924 at 0.3 μM for 5 minutes (5m), 30 minutes (30 m), 2 hours (2h) and 24 hours (24h). […] In comparison, MLN4924 inhibits the neddylation of both cullin 1 and 3.
# (§3) Immortalized liver THLE2 (ATCC® CRL-2706™) cell lines was purchased from the ATCC (Rockville, MD). The cell line was maintained in BEGM Bronchial Epithelial Cell Growth Medium from Lonza/Clonetics Corporation (CC3170, Walkersville, MD) supplemented with 10% FBS and pen-strep at 37° C. in a humidified incubator with 5% CO2. Esophageal cancer KYSE140 cell line (ACC 348) was purchased from DSMZ (Braunschweig, Germany). The cell line was maintained RPMI1640 supplemented with 10% FBS and pen-strep at 37° C. in a humidified incubator with 5% CO2.
# (§4) Treated cells were lysed by RIPA buffer supplemented with protease inhibitor. The expression level of indicated proteins was examined by western blotting analysis. GAPDH was used as a loading control. Antibodies were purchased: Cullin 1 (sc-11384), Cullin2 (sc-10781), Cullin5 (sc-13014) and Cullin7 (sc-134565) from Santa Cruz Biotech. […]
# [3] = system: Cyclin E, BimEL, CDT1; test: Western blotting of Cul-1 and Cul-4A substrates in THLE2 liver cell line; assay type: cell-based; details: dose-range, 24 h
# Protocol: as §1, §3
# (§5) Treated cells were lysed by RIPA buffer supplemented with protease inhibitor. The expression level of indicated proteins was examined by western blotting analysis. GAPDH was used as a loading control. Antibodies were purchased: Cullin 1 (sc-11384), Cullin2 (sc-10781), Cullin5 (sc-13014) and Cullin7 (sc-134565) from Santa Cruz Biotech. (Santa Cruz, CA); Cullin 4A (PA5-14542), Cullin 4B (PA5-35239), Cullin9 (PA5-20277), DCN2 (DCUN1D2, PA5-31607) and DCN3 (DCUN1D3, PA5-44000) from ThermoFisher Scientific (Wayne, MI); Cullin 3 (2759), NRF2 (12721), HO-1 (70081), NQ01 (3187), Cyclin E (4129), Bim (2819), Keap1 (8047) and UBC12 (4913) from Cell Signaling Technology (Boston, MA); DCN1 (GWB-E3D700) from GenWay Biotech (San Diego, CA). Results are representative of three independent experiments.
# [4] = system: NRF2; test: Western blotting of NRF2 and NRF2-regulated proteins in THLE2 liver cell line; assay type: cell-based; details: for accumulation of NRF2 and NQ01 protein / abundance of NRF2 protein (cullin 3 substrate): THLE2 liver cell line; for accumulation of NRF2 and NQ01 protein: 10 μM, different time points; for abundance of NRF2 protein (cullin 3 substrate): dose-range, 24 h, western blotting
# Protocol: as §1
# NRF2 is a transcriptional factor and a master regulator of antioxidant responses, regulating numerous detoxifying and antioxidant genes, such as the phase II detoxification enzymes heme oxygenase (HO1) and NAD(P)H:quinone oxidoreductase-1 (NQ01) (36). DI-591 (Example 58) was compared to dimethyl fumarate (DMF) for their effect on NRF2 and NQ01 protein levels in the THLE2 liver cell line with DI-591DD included as a control with the data shown in FIG. 3. THLE2 liver cell line was treated by DI-591 at 10 μM, DI-591DD at 10 μM or DMF at 10 μM for different time points.
# as §3, §5
# [5] = system: neddylation of cullin 1; test: Western blotting of neddylated and un-neddylated cullin 1 in THLE2 liver cell line; assay type: cell-based; details: DI-591 at 10 μM or MLN4924 at 0.3 μM, 5 minutes to 24 hours
# Protocol: as §2, §3, §4
# [6] = target: DCN1 (Homo sapiens (Human), UniProt Q96GG9); test: FP protein saturation experiment (Kd of fluorescent probe); details: fluorescein-labeled probe; read-out: Binding affinity to DCN1, Kd
# Protocol: The Fluorescence Polarization (FP) competitive binding assays were performed to accurately determine the binding affinities of our DCN1 inhibitors. A novel FAM labeled fluorescent probe compound (46) was designed and synthesized based on one of our potent small molecule DCN1 inhibitors. […] Serial dilutions of proteins were mixed with 46 to a final volume of 200 μl in the assay buffer (100 mM phosphate buffer, pH=6.5, with 0.02% Tween-20 and 2% DMSO). Final probe concentration was 5 nM for both assays. Plates were incubated at room temperature for 30 minutes with gentle shaking to assure equilibrium. FP values in millipolarization units (mP) were measured using the Infinite M-1000 plate reader (Tecan U.S., Research Triangle Park, NC) in Microfluor 1 96-well, black, round-bottom plates (Thermo Scientific, Waltham, MA) at an excitation wavelength of 485 nm and an emission wavelength of 530 nm.
# Human DCN1 (residues 58-259) were cloned into a pDEST17 plasmid containing an N-terminal His6 tag. DCN2 (residues 62-259), DCN3 (residues 86-304), DCN4 (residues 102-292) and DCN5 (residues 47-237) were cloned into an N-terminal His6-TEV expression vector. Pure proteins were derived from the same expression and purification protocols. […]
# [7] = THLE2, DI-591 at 10 μM or MLN4924 at 0.3 μM, 5 minutes to 24 hours
# Chain of DCN1 (Q96GG9 58-259): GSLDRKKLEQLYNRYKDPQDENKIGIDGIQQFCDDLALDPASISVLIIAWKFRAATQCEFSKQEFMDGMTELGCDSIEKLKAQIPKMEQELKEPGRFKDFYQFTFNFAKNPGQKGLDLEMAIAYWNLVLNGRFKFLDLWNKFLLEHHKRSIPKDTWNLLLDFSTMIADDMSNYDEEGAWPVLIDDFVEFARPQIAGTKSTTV
pKd [6],Compound,mRNA level of NRF2 [1],mRNA levels of NQ01 and HO1 (NRF2-regulated genes) [1],"neddylation of cullin 3 [2, 7]","neddylation of cullin 3 ([2]; THLE2 liver cell line, dose-range, 24 h)","protein levels of Cyclin E, BimEL and CDT1 (substrates of Cul-1 and Cul-4A) [3]",accumulation of NRF2 and NQ01 protein [4],abundance of NRF2 protein (cullin 3 substrate) [4],"NRF2 protein, immunohistochemical data ([4]; liver cells)",neddylation of cullin 1 [5],accumulation of NRF2 and NQ01 protein ([4]; listed as dimethyl fumarate)
,"CCC(=O)N[C@@H](Cc1nc2ccc(C(C)C)cc2s1)C(=O)N[C@H](CNC(=O)CCN1CCOCC1)C1CCCCC1 [Example 58, (S)—N—((S)-1-cyclohexyl-2-(3-morpholinopropanamido)ethyl)-3-(6-isopropylbenzo[d]thiazol-2-yl)-2-propionamidopropanamide]",no effect,upregulates; also recorded: clearly increases,rapidly inhibits,selectively and dose-dependently inhibits,no or minimal effect,stimulate the accumulation,induces upregulation; also recorded: selectively increased,increased,little effect,
,"CCC(=O)N[C@H](Cc1nc2ccc(C(C)C)cc2s1)C(=O)N[C@@H](CNC(=O)CCN1CCOCC1)C1CCCCC1 [Example 123, (R)—N—((R)-1-cyclohexyl-2-(3-morpholinopropanamido)ethyl)-3-(6-isopropylbenzo[d]thiazol-2-yl)-2-propionamidopropanamide]",no effect,not,,,no effect,not,no effect,,,
7.66,"CCC(=O)N[C@@H](Cc1nc2ccc(C(C)C)cc2s1)C(=O)N[C@H](CNC(=O)C1CCN(CCOCCOCCOCCNC(=O)c2ccc3c(c2)C(=O)OC32c3ccc(O)cc3Oc3cc(O)ccc32)CC1)C1CCCCC1 [Example 127, N—((S)-2-cyclohexyl-2-((S)-3-(6-isopropylbenzo[d]thiazol-2-yl)-2-propionamidopropanamido)ethyl)-1-(1-(3′,6′-dihydroxy-3-oxo-3H-spiro [isobenzofuran-1,9′-xanthen]-5-yl)-1-oxo-5,8,11-trioxa-2-azatridecan-13-yl)piperidine-4-carboxamide]",,,,,,,,,,
,"NS(=O)(=O)OC[C@@H]1C[C@@H](n2ccc3c(N[C@H]4CCc5ccccc54)ncnc32)C[C@@H]1O [MLN4924, reference compound]",,,inhibits,,induces accumulation,,induces accumulation,,inhibits,
,"COC(=O)/C=C/C(=O)OC [Dimethyl fumarate, dimethyl fumarate, reference compound]",,,,,,stimulates the accumulation,,,,stimulate the accumulation
